Patent US20260200964A1, “MONOSACCARIDES, PHARMACEUTICAL COMPOSITIONS, AND DIAGNOSTIC AND THERAPEUTIC APPLICATIONS” (Surio Therapeutics Co., LTD., priority 2022, published 2026)

Legend:
[1] = Compound stability in a biological matrix (mouse plasma); type: in vitro ADME; details: 10 μg/mL, 37° C., LC-MS/MS
Experimental: (§1) A compound was dissolved in DMSO as a 1 mg/mL stock solution. An ACN solution of the compound at 100 μg/mL was prepared from the stock solution, 10 μL of which was added to a biological matrix (90 μL) to the final concentration of 10 μg/mL for the compound. The mixtures of the compound in a biological matrix were incubated at 37° C. for 0, 0.5, 1, or 4 h. At each time point, ACN (900 μL) was added to a mixture. After the mixture was centrifuged at 15,000 rpm for 5 min, the supernatant was mixed with the same volume of H2O (1% TFA) and then analyzed by LC-MS/MS. The results are summarized in Table 3, wherein Cbz-AAM is (2R,3S,4R,5S)-6-((4-((S)-6-acetamido-2-(((benzyloxy)carbonyl)amino)hexan-amido)phenyl)(phenyl)methoxy)-2-(acetoxymethyl)-5-(2-azidoacetamido)tetrahydro-2H-pyran-3,4-diyl diacetate.

[2] = Compound stability in a biological matrix (human plasma); type: in vitro ADME; details: 10 μg/mL, 37° C., LC-MS/MS
Experimental: as §1

Row | Structure (SMILES) | Compound Remaining (%) Mouse 1 h [1] | Compound Remaining (%) Human 1 h [2] | Compound Remaining (%) Human 4 h [2] | Compound Remaining (%) Mouse 4 h [1]
1 | CC(=O)NCCCC[C@H](NC(=O)OCc1ccccc1)C(=O)Nc1ccc(C(OC2O[C@H](COC(C)=O)[C@@H](OC(C)=O)[C@H](OC(C)=O)[C@@H]2NC(=O)CN=[N+]=[N-])c2ccccc2)cc1 (stereo partly drawn) [Cbz-AAM, (2R,3S,4R,5S)-6-((4-((S)-6-acetamido-2-(((benzyloxy)carbonyl)amino)hexan-amido)phenyl)(phenyl)methoxy)-2-(acetoxymethyl)-5-(2-azidoacetamido)tetrahydro-2H-pyran-3,4-diyl diacetate, reference compound] | 16% | 100% | 100% | 
2 | CC(=O)NCCCC[C@H](NC(=O)OCc1ccccc1)C(=O)Nc1ccc(C(OC2OC(COC(C)=O)C(OC(C)=O)C(OC(C)=O)C2NC(=O)CN=[N+]=[N-])c2cncs2)cc1 (stereo partly drawn) [Compound A3, 1-O-(1-(thiazol-5-yl)-1-(4-(6-acetamido-2(S)-(benzyloxycarbonylamino)-hexanamido)phenyl)methyl)-2-(2-azidoacetylamino)-2-deoxy-3,4,6-tri-O-acetyl-D-mannopyranoside] | 72% |  |  | 19%
3 | CC(=O)NCCCC[C@H](NC(=O)OCc1ccccc1)C(=O)Nc1ccc(C(OC2OC(COC(C)=O)C(OC(C)=O)C(OC(C)=O)C2NC(=O)CN=[N+]=[N-])c2cccnc2)cc1 (stereo partly drawn) [Compound A6] | 4% | 88% | 65% | 0.6%

Results, then the compound that gave them:

Row | Compound Remaining (%) Mouse 1 h [1] | Compound Remaining (%) Human 1 h [2] | Compound Remaining (%) Human 4 h [2] | Compound Remaining (%) Mouse 4 h [1] | Structure (SMILES)
4 | 38% |  |  | 3% | CC(=O)NCCCC[C@H](NC(=O)OCc1ccccc1)C(=O)Nc1ccc(C(OC2OC(COC(=O)CN3CCCC3)C(OC(C)=O)C(OC(C)=O)C2NC(=O)CN=[N+]=[N-])c2ccnn2C)cc1 (stereo partly drawn) [Compound A11, 1-O-(1-(2-Methylpyrazol-3-yl)-1-(4-(6-acetamido-2(S)-(benzyloxycarbonyl-amino)hexanamido)phenyl)methyl)-2-(2-azidoacetylamino)-2-deoxy-3,4-di-O-acetyl-6-O-(pyrrolin-1-ylacetyl)-D-mannopyranoside]
5 | 29% | 41% | 4% | 6% | CC(=O)NCCCC[C@H](NC(=O)OCc1ccccc1)C(=O)Nc1ccc(C(OC2OC(COC(C)=O)C(OC(C)=O)C(OC(C)=O)C2NC(=O)CN=[N+]=[N-])c2ccncc2)cc1 (stereo partly drawn) [Compound A7, 1-O-(1-(Pyridin-4-yl)-1-(4-(6-acetamido-2(S)-(benzyloxycarbonylamino)hexan-amido)phenyl)methyl)-2-(2-azidoacetylamino)-2-deoxy-3,4,6-tri-O-acetyl-D-mannopyranoside]
